What was measured:
Type in all cases: cell-based
[1] = tested on: MDA-MB-435; experiment: NCI cell line panel; details: Homo sapiens, Breast Cancer, read-out: Log10 GI50 (converted)
Text: (§1) Only two hundred years ago, many diseases ravaged humankind. Many of these diseases now have been controlled or eradicated. In the development of the means to treat or control these diseases, work with the appropriate common experimental animals was of critical importance. With the various types of cancers, and with the HIV virus, such work is presently ongoing. The research for the treatment of various types of cancer is coordinated in the United States by the National Cancer Institute (NCI). NCI, as a government entity, has been charged with assisting anti-cancer research. To establish whether a substance has anti-cancer activity, NCI has established a variety of protocols, one of which involves testing the candidate substance against a cell line panel containing 60 human tumor cell lines. This protocol has been verified and is generally accepted throughout the scientific community. This protocol and the established statistical means of evaluating the results obtained therefrom have been fully described in the literature. See Principles & Practice of Oncology PPO Updates, Volume 3, Number 10, October 1989, by Michael R. Boyd, M.D., Ph.D., for an in depth description of the test protocol. The statistical analysis is explained in "Display and Analysis of Patterns of Differential Activity of Drugs Against Human Tumor Cell Lines: Development of Means Graph and COMPARE Algorithm" Journal of the National Cancer Institute Reports Vol. 81, No. 14, Pg. 1088, Jul. 14, 1989, by K. D. Paull et al. Both of these references are incorporated herein by this reference thereto. The effectiveness and validity of the NCI in vitro protocol continues to be verified.

[2] = tested on: MDA-N; experiment: NCI cell line panel; details: Homo sapiens, Breast Cancer, read-out: Log10 GI50 (converted)
Text: as §1

[3] = tested on: NCI-H522; experiment: NCI cell line panel; details: Homo sapiens, Non-Small Cell Lung Cancer, read-out: Log10 GI50 (converted)
Text: as §1

[4] = tested on: SK-MEL-5; experiment: NCI cell line panel; details: Homo sapiens, Melanoma, read-out: Log10 GI50 (converted)
Text: as §1

[5] = tested on: UACC-257; experiment: NCI cell line panel; details: Homo sapiens, Melanoma, read-out: Log10 GI50 (converted)
Text: as §1

[6] = tested on: Breast Cancer; experiment: NCI cell line panel, breast cancer line, BT-549 or T-47D not assignable; details: Homo sapiens, last of 7 values for 8 lines, read-out: Log10 GI50 (converted)
Text: as §1, with “The statistical analysis is explained in "Display and Analysis of Patterns of Differential Activity of Drugs Against Human Tumor Cell Lines: Development of Means Graph and COMPARE Algorithm" Journal of the National Cancer Institute Reports Vol. 81, No. 14, Pg. 1088, Jul. 14, 1989, by K. D. Paull et al. Both of these references are incorporated herein by this reference thereto. The effectiveness and validity of the NCI in vitro protocol continues to be verified.” left out

Work on `C=C/C=C/C(O)CC(=C)CC1OC2C(C)C(OC(=O)CC3CC(O)CC4(CC(C)(O)CC(C=C5COC(C(C)C(=O)CC6CC(OC)CC7(CC(O)CC(/C=C\CCCC8OC(O)(CC(O)C8C)C2O)O7)O6)C5C)O4)O3)C1O` (stereo not drawn) [spongistatin 7] yielded a GI50 [1] of 0.0191 nM, a GI50 [2] of 0.0151 nM and a GI50 [3] of 0.0282 nM. The GI50 [4] was 0.0851 nM, the GI50 [5] was 14.1 nM and the GI50 [6] was 100 nM.
